In US10314880B2, “Composition comprising bortezomib” (FTF Pharma Private Limited, priority 2015, dated 2019):

Assays:
[1] = tested on: Female New-Zealand White Rabbits; settings: rabbit, in vivo
Procedure: Also Local tolerability/tissue reaction of Bortezomib 3.5 mg/0.2 mL compared with Velcade (Reference product) in Female New-Zealand White Rabbits.
The study was conducted to assess the local tolerance of Bortezomib in comparison with Velcade (Reference product) in New Zealand White Rabbits by single subcutaneous or intravenous route.

[2] = Bortezomib as such; cited from earlier work
[3] = stress testing and accelerated stability studies; cited from earlier work

Row | Compound | External observation of the site of injection: signs of local intolerance [1] | Microscopic signs of local intolerance ([1]; iv) | animals with signs of local intolerance observed microscopically ([1]; sc) | water solubility [2] | stability in aqueous solution for injection [3]
1 | Velcade | did not reveal any signs of local intolerance | no signs of local intolerance | 50 % of animals |  | 
2 | CC(C)C[C@H](NC(=O)[C@H](Cc1ccccc1)NC(=O)c1cnccn1)B(O)O [Bortezomib, [(1R)-3-methyl-1-[[(2s)-3-phenyl-2-(pyrazine-2-carbonylamino)propanoyl]amino]butyl]boronic acid] |  |  |  | poor water solubility | unstable
